Publication PMC8864717 (Chemical Science, 2021)
Read-outs that look alike come from different tables or passages of the source.

Key:
SARS-CoV-2 M^pro = SARS-CoV-2 M^pro (Severe acute respiratory syndrome coronavirus 2, UniProt P0DTD1); type: biochemical; conditions: at comparable concentrations
SARS-CoV-2 [1] = type: in vivo, golden Syrian hamster
SARS-CoV-2 [2] = type: cell-based; conditions: CBS 1000 μM, NAC 1000 μM, CBS 1000 μM + 3NAC 3000 μM, non-treated 64.5%
SARS-CoV-2 [3] = experiment: Viral load reduction assay, SARS-CoV-2 in Vero E6 cells; type: cell-based; conditions: Vero E6, up to 2000 μM
SARS-CoV-2 PL^pro = SARS-CoV-2 PL^pro (Severe acute respiratory syndrome coronavirus 2, UniProt P0DTD1); type: biochemical; conditions: at comparable concentrations
[4] = cited from earlier work
SARS-CoV-2 [5] = conditions: read-out: EC50, SARS-CoV-2; cited from earlier work
[6] = SD rats
[7] = cited from earlier work; remark: listed apart in the source
ACE2 = ACE2 (Homo sapiens, UniProt Q9BYF1); experiment: ACE2 activity inhibition assay; type: biochemical
[8] = Ex vivo everted gut sac model; type: in vitro ADME; conditions: rat duodenum, within 60 min, CBS 200 μM, pH 7.4
[9] = pH 9.2, with NAC
Caco-2 cell monolayer = conditions: CBS 150 μM, without or with 10NAC 1.5 mM
[10] = Blood bismuth concentration after oral administration in mice; type: in vivo; conditions: Balb/c mice, oral CBS 150 mg kg^-1 (NAC 180 or 610 mg kg^-1)
[11] = single oral dose CBS 150 mg/kg, NAC 610 mg/kg, n = 5

Sequence of ACE2 (Q9BYF1 18-805): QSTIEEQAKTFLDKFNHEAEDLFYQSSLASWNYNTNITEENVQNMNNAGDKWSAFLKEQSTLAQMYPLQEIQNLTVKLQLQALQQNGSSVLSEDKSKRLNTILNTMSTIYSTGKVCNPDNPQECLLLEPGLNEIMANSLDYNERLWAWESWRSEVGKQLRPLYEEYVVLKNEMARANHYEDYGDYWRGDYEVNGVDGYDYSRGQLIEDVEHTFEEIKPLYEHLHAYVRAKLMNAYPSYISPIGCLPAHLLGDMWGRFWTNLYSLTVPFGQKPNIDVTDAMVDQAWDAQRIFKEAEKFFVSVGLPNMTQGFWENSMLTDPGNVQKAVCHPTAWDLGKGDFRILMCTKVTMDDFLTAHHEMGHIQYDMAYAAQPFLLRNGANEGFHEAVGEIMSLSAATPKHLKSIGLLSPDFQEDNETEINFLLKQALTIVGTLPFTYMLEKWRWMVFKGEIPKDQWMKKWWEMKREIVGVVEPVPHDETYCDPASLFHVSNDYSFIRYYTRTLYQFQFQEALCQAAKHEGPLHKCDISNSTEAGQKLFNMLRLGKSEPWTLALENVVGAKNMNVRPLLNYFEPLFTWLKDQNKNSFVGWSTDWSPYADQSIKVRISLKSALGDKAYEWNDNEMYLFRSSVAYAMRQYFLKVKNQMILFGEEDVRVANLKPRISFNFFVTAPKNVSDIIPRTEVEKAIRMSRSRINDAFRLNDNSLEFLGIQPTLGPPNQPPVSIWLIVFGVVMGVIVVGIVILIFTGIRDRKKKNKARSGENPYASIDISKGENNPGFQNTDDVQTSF

Compound: CC(=O)N[C@@H](CS)C(=O)O [NAC, N-acetyl-L-cysteine]
- inhibitory activity on SARS-CoV-2 M^pro (SARS-CoV-2 M^pro): negligible inhibitory activity
- SARS-CoV-2-NP antigen signal in alveolar tissue of hamster lungs (SARS-CoV-2 [1]; hamster, in vivo, po): 85.67(±11.59) NP^+ cells per view
- lung pathology (SARS-CoV-2 [1]; hamster, in vivo, po): partially relieve lung pathology
- lung viral load versus vehicle group (SARS-CoV-2 [1]; oral, CBS 300 mg kg^-1 or NAC 370 mg kg^-1, day -2 to 1, […]): no statistically significant difference
- viral NP antigen in infected Vero E6 cells (SARS-CoV-2 [2]): 59.75%
- anti-SARS-CoV-2 activity of NAC alone, virus copies in supernatant (SARS-CoV-2 [3]): negligible anti-SARS-CoV-2 activity
- inhibitory activity on SARS-CoV-2 PL^pro (SARS-CoV-2 PL^pro): negligible inhibitory activity

Compound: O=[N+]([O-])[O-].O=[N+]([O-])[O-].O=[N+]([O-])[O-].O=[N+]([O-])[O-].[Bi+3].[Bi+3].[Bi+3].[Bi+3].[Bi+3].[O-2].[OH-].[OH-].[OH-].[OH-].[OH-].[OH-].[OH-].[OH-].[OH-] [BSN, bismuth subnitrate]
- absorption of bismuth in the rat small intestine [4]: lower than 1%

Compound: CNC(=C[N+](=O)[O-])NCCSCc1ccc(CN(C)C)o1.O=C([O-])CC(O)(CC(=O)[O-])C(=O)[O-].[Bi+3] [RBC, ranitidine bismuth citrate]
- cumulative permeated bismuth, PAMPA (iso-pH 1.2, in the presence of 10 mol eq. NAC): 19.77 ng cm^−2
- cumulative permeated bismuth, PAMPA (iso-pH 1.2, without NAC): 15.24 ng cm^−2

Compound: colloidal bismuth subcitrate [CBS]
- absorption of bismuth in the rat small intestine [4]: lower than 1%
- EC50 (SARS-CoV-2 [5]): 4.6 µM
- bismuth accumulation in the kidney ([6]; 24 hour after oral dose): 6839.76(±1652.30) ng per tissue
- bismuth accumulation in the lung ([6]; 24 hour after oral dose): 552.15(±104.97) ng per tissue
- first peak value of blood bismuth level ([6]; oral CBS 150 mg kg^-1, at around 0.5 h): 277.69 µg/L
- AUC0→12 h [6, 11]: 1316(±474.00) h μg L^−1
- Cmax (blood bismuth) [6, 11]: 447.06(±132.39) μg L^−1
- solubility in water ([7]; pH 3): about 1 mg mL^−1
- solubility in water ([7]; pH 7): > 70 mg/mL
- cumulative permeated bismuth, PAMPA (iso-pH 1.2, without NAC): 16.95 ng cm^−2
- inhibition of ACE2 activity (ACE2): barely displayed anti-ACE2 potency
- cumulative bismuth permeated, everted sac model [8]: 14.68(±4.12) ng cm^−2
- hydrolysis of CBS at pH 9.2 in the presence of NAC [9]: prevent hydrolysis
- SARS-CoV-2-NP antigen signal in alveolar tissue of hamster lungs (SARS-CoV-2 [1]; hamster, in vivo, po): 68.00(±6.08) NP^+ cells per view
- adverse clinical signs and symptoms of infected hamsters (SARS-CoV-2 [1]; oral treatment, end of experimental period): mildly mitigated
- cellular accumulation of bismuth in Caco-2 monolayer (Caco-2 cell monolayer): 0.33(±0.02) %
- apparent permeability coefficient (Papp) through Caco-2 monolayer (Caco-2 cell monolayer; pH 7.4): 1.73(±0.02) × 10^−7 cm s^−1
- blood bismuth concentration ([10]; 0.5 hour): 225.75(±86.05) μg L^−1
- blood bismuth concentration ([10]; 1 hour): 87.27(±21.46) μg L^−1
- viral NP antigen in infected Vero E6 cells (SARS-CoV-2 [2]): 37.25%
